Tests used:
[1] = test system: keratin 1, keratin 10 and Loricrin in HaCaT cells; test: mRNA levels of keratinization indicators in HaCaT cells given HUVEC conditioned medium; assay type: cell-based
Method: (§1) HUVEC cells were administrated with 15 μM sorafenib. After that, the cells and the culture medium were separately collected, and the culture medium is concentrated. […] HUVEC culture medium treated with sorafenib, as a conditioned medium, was applied to HaCaT cells, and the expression of SIRT1 in the cells was detected. […] After HUVEC cells with HB-EGF knocked out were constructed, the culture medium obtained after administrated with sorafenib was administrated to the HaCaT cells, and mRNA levels of the keratinization progress indicators, i.e., keratin 1, keratin 10 and Loricrin, were detected. […] The HUVEC culture medium added with sorafenib, as the conditioned medium, was applied to the HaCaT cells in which SIRT1 was knocked out, and the mRNA levels of the three keratins were detected.
In an in vitro cell experimental model, HUVEC cells were administered with 15 μM sorafenib alone, and 15 μM sorafenib together with 10 μM nicotinamide, respectively. After 24 hours, the culture medium was collected as a conditioned medium for HaCaT cells, and the HaCaT cells were collected 24 hours later for the detection of mRNA levels of three keratins.

[2] = patients treated with sorafenib; cited from earlier work
SIRT1 in HaCaT cells = test: SIRT1 expression in HaCaT cells given sorafenib-treated HUVEC conditioned medium; assay type: cell-based; details: HaCaT cells given sorafenib-treated HUVEC culture medium as conditioned medium, FIG. 1B
Method: as §1

[3] = test system: HB-EGF protein in HUVEC cells; test: Western blot of pro-HB-EGF in cell lysate and s-HB-EGF in culture medium of sorafenib-treated HUVEC cells; assay type: cell-based; details: 15 μM sorafenib, FIG. 1A
Method: as §1

Structure (SMILES)	mRNA levels of keratin 1, keratin 10 and Loricrin ([1]; HaCaT cells given medium of sorafenib-treated HUVEC cells with HB-EGF knocked out, FIG. 1C)	mRNA levels of keratin 1, keratin 10 and Loricrin ([1]; SIRT1-knocked-out HaCaT cells given sorafenib-treated HUVEC conditioned medium, FIG. 1D)	prevalence of hand-foot skin reaction (HFSR) [2]	expression of SIRT1 in HaCaT cells (SIRT1 in HaCaT cells)	expression level of the HB-EGF protein in the cells (pro-HB-EGF, cell lysate) ([3]; HUVEC cells)	expression of HB-EGF protein in the culture medium (s-HB-EGF) ([3]; HUVEC culture medium, concentrated)	mRNA levels of the three keratins (keratin 1, keratin 10, Loricrin) ([1]; HUVEC treated 24 h with 10 μM nicotinamide plus 15 μM sorafenib, medium applied to HaCaT for 24 h, compared with sorafenib alone, FIG. 2)
CNC(=O)c1cc(Oc2ccc(NC(=O)Nc3ccc(Cl)c(C(F)(F)F)c3)cc2)ccn1 [sorafenib]	down-regulated	also down-regulated	up to 60%	up-regulated	down-regulated	increased	
NC(=O)c1cccnc1 [nicotinamide, 3-pyridinecarboxamide]							significantly down-regulated

Reference: US20210330659A1, “USE OF NICOTINAMIDE COMPOSITION IN PREPARATION OF DRUG FOR TREATING HAND-FOOT SKIN REACTION INDUCED BY SORAFENIB” (ZHEJIANG UNIVERSITY, priority 2018, published 2021)
